Assay: Henry solubility constant Hcp at 298.15 K (mol/(m3 Pa))
Conditions: reference: Li et al. (1993)

Row | Structure (SMILES) | Henry solubility constant Hcp
1 | CCc1ccccc1 [ethylbenzene] | 0.0013
2 | CC(C)OC(C)C [diisopropyl ether] | 0.0044
3 | CCCCCl [1-chlorobutane] | 0.00053
4 | Cc1ccc(C)cc1 [1,4-dimethylbenzene] | 0.0014
5 | CC(C)c1ccccc1 [(2-propyl)-benzene] | 0.00089
6 | ClC(Cl)=C(Cl)Cl [tetrachloroethene] | 0.00063
7 | CCCI [1-iodopropane] | 0.0011
8 | CC(C)Cl [2-chloropropane] | 0.00054
9 | CCCc1ccccc1 [propylbenzene] | 0.00091
10 | CC(C)Br [2-bromopropane] | 0.00084
11 | Cc1ccccc1C [1,2-dimethylbenzene] | 0.0021
12 | Cc1cccc(C)c1 [1,3-dimethylbenzene] | 0.0015
13 | CC(Cl)(Cl)Cl [1,1,1-trichloroethane] | 0.00057
14 | CCCCCCl [1-chloropentane] | 0.00042
15 | CCC(C)Br (stereo unspecified) [2-bromobutane] | 0.00077
16 | ClCCl [dichloromethane] | 0.0038
17 | CCCBr [1-bromopropane] | 0.0011
18 | CCCCc1ccccc1 [butylbenzene] | 0.00067
19 | Cc1cc(C)cc(C)c1 [1,3,5-trimethylbenzene] | 0.0014
20 | ClC=C(Cl)Cl [trichloroethene] | 0.001
21 | Cc1ccccc1 [methylbenzene] | 0.0016
22 | CCBr [bromoethane] | 0.0013
23 | CCCOCCC [dipropyl ether] | 0.0029
24 | CCI [iodoethane] | 0.0014
25 | CCCCCCCl [1-chlorohexane] | 0.00031
26 | c1ccccc1 [benzene] | 0.0018

From Sander's compilation of Henry's law constants (doi:10.1021/ac00070a008)
